The structures appear in SMILES notation.

Assay [1] has as its system ddhA gene (promoter Pddh of ddh operon). Nature of the assay: RT-PCR analysis of ddhA gene transcription induction by sulfur compounds. The class given is cell-based, Rv. sulfidophilum W-1S. To be noted: 3 days in 4CMOM medium, bright aerobic and dark aerobic condition. As for the experimental part: Extraction of RNA was carried out using RNeasy Mini Kit (QIAGEN) according to the protocol attached thereto. For dissolving the cells at that time, lysozyme was added thereto in the indicated concentration. For the removal of the contaminated DNA, DNase I (TaKaRa) was used by the method indicated in the protocol together with the buffer attached thereto. Incubation was carried out at 37° C. for 30 minutes and, after that, RNA was purified via a PCI treatment and a precipitating operation with ethanol. A reverse transcription reaction was carried out where 1 μg of purified RNA as a template using an RNA PCR Kit (AMV) Ver. 2.1 (TaKaRa). In the reverse transcription reaction, things contained in the kit, i.e. reverse transcriptase, RNase inhibitor, random nonamer, buffer, dNTP and MgCl2 were used and the reaction was conducted at 45° C. for 28 minutes. A PCR was carried out by the same manner as in the above mentioned “4: PCR” using 4 μl of the solution after the reverse transcription reaction as a template.
Firstly, investigation of a DMS-inductive property of Pddh was planned. Primers ddhA1 and ddhA2 were designed based on ddhA gene sequence on the database. […]

In assay [2] the test system is DMS biosensor strain. The assay can be described thus: Response of DMS biosensor strain (pSDMS in pigment variant): color tone and rate of red pigment by HPLC. The class given is cell-based, Rv. sulfidophilum. To be noted: third day of incubation, bright aerobic condition, n=3. As for the experimental part:
When incubation of a bacterium strain was conducted in 10 ml of medium in a test tube under various conditions (under slightly aerobic and bright condition; under slightly aerobic and dark condition; and under anaerobic and bright condition), the incubation was done for three days. The culture liquid (1 ml) was placed in an Eppendorf tube, the pellets after centrifugal separation was frozen at −80° C. for 2 hours and then freeze-dried for one night. An appropriate amount (100 μl to 500 μl) of a mixed liquid of acetone and methanol was added to the resulting freeze-dried product, subjected to vortex for 2 minutes and then centrifuged for 5 minutes at 14,000 rpm using a portable centrifuge and the resulting supernatant liquid was used as a sample for an HPLC. […]
Since DMS is hardly soluble in water, ethanol was used as a solvent for the manufacture of concentrated stocks and preparation of diluted series. […] Analysis of pigment composition was conducted via an HPLC analysis the same as before and, from the value of area of each peak shown in the resulting HPLC chart, rate of red pigments (DMSO and SO) to the sum of total carotenoid pigment (DMSO, DMSE, SO, SE and neurosporene) was calculated. For each sample, mean value and standard deviation was calculated from the above value and a graph was prepared. […]

In assay [3] the test system is SENS-AS strain. The assay can be described thus: Specificity of SENS-AS strain to metals other than arsenic. The class given is cell-based, Rv. sulfidophilum. An excerpt: Therefore, specificity to metal of the SENS-AS strain was investigated by adding a sample containing metal other than arsenic to the SENS-AS strain and checking the responding property to those samples. With regard to the metal other than arsenic, there were used antimony and bismuth which have been reported to inherently show a responding property to ArsR and also cobalt, cadmium, nickel, zinc and lead where responding property in a protein having the similar sequence to metal-bonding site of ArsR has been confirmed already [L. S. Busenlehner, et al., (2003) FEMS Microbiol. Rev., 27:131-43]. The responding property was also tested for a solution in which iron, manganese, copper and aluminum which are abundantly contained in tap water were mixed. The experiment was carried out by the same method as in the detection of arsenic, rate of red pigments (DMSO and SO) to the total sum of DMSO, DMSE, SO and SE was calculated from the area value of each peak shown in the chart prepared as a result of an HPLC analysis, mean value and standard deviation for each sample were calculated and graphs were prepared.
From the above results, it was now made clear that the arsenic-detecting biosensor SENS-AS strain responded arsenic and bismuth. However, in order to respond to bismuth, a bismuth concentration of as high as 100-fold as compared with arsenic was necessary.

Turning to `CSC` [DMS, dimethyl sulfide], in assay [1], the “ddhA gene transcription induction” value is “apparent ddhA gene transcription induction was observed”. Besides, the “DMS concentration giving significant accumulation of SO and discriminable color tone” value in assay [2] stood at 3 mM.

Take `[Bi]` [bismuth]: in assay [3], the “concentration needed for response as compared with arsenic” value was found to be 100 fold.

Take `C[S+](C)[O-]` [dimethyl sulfoxide]: in assay [1], the “ddhA gene transcription induction” value is given as “no significant induction of ddhA gene transcription”.

These data come from patent publication US20080044829A1, “Biosensor Utilizing Pigment-Synthesizing Gene Of A Purple Non-Sulfur Bacterium And A Method For Preparing Such A Biosensor” (priority 2004, published 2008).
